What all share (type): cell-based
One test deals with CipR MRSA OC4222. The test is described as follows: Resistant strains assay (broth microdilution MIC). The note with it: Staphylococcus aureus, read-out: MIC, Column G. An excerpt: Testing protocols followed NCCLS methodology for broth microdilution assays.
A further test deals with E. coli ATCC25922. Briefly: In vitro antibacterial activity (MIC assay), broth microdilution. The conditions noted are these: Escherichia coli. The method in brief: (§1)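 Broth microdilution per NCCLS M7-A5: 11-point 2-fold compound dilutions from DMSO stocks, inoculum about 5×10^5 CFU/mL, incubation 35° C for 16–24 h. MIC scored visually against no-compound growth controls, in μg/mL.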
Background: Broth dilution looks for growth in wells or tubes with falling amounts of substance.

Another test deals with S. pneumoniae ATCC49619. The test is described as above. The method in brief: as §1
The test system of another test is S. aureus ATCC13709. The description is as above. The method, boiled down: as §1
Setting [1] is: obtained with E. coli ATCC25922, read-out: E. coli MIC, data marked (*).
Where [2] appears, read: Streptococcus pneumoniae, ATCC49619; read-out: S. pneumoniae ATCC49619 MIC.
The mark [3] stands for this setting: Staphylococcus aureus, ATCC13709; read-out: S. aureus ATCC13709 MIC.

The record followed here is patent publication US8242275B2, “Bicyclic pyrazole compounds as antibacterial agents” (Janssen Pharmaceutica NV, priority 2005, dated 2012).

In brackets after ≈: the same amount, converted by molar mass. Where a name gives a salt, the structure may show the parent alone. Read-outs that look alike come from different tables or passages of the source. Bounds are passed on as bounds.

Broadly, the MIC is the least concentration at which growth counts as inhibited. On to `COc1ccc2nccc(-n3cc4c(n3)CCC(NC(=O)c3cc5c(cc3OC)SCC(=O)N5)C4)c2n1` (centres unmarked) [Example 130, 7-Methoxy-3-oxo-3,4-dihydro-2H-benzo[1,4]thiazine-6-carboxylic acid [2-(6-methoxy-[1,5]naphthyridin-4-yl)-4,5,6,7-tetrahydro-2H-indazol-5-yl]-amide], for which the minimum inhibitory concentration (MIC) in the test with CipR MRSA OC4222 (CipR MRSA OC4222) is 2 µg/mL (≈ 3.87 µM); in the test with E. coli ATCC25922 (setting [1]) it was > 16 µg/mL; in the test with S. pneumoniae ATCC49619 (setting [2]), 16 µg/mL (≈ 31 µM); in the test on S. aureus ATCC13709 (setting [3]) it was 2 µg/mL (≈ 3.87 µM).

On to `COc1ccc2nccc(-n3ncc4c3CCC(NC(=O)c3cc5c(cc3C)SCC(=O)N5)C4)c2c1` (centres unmarked) [Example 132, 7-Methyl-3-oxo-3,4-dihydro-2H-benzo[1,4]thiazine-6-carboxylic acid [1-(6-methoxy-quinolin-4-yl)-4,5,6,7-tetrahydro-1H-indazol-5-yl]-amide], for which the MIC was 2 µg/mL (≈ 4 µM) with CipR MRSA OC4222 (CipR MRSA OC4222), > 16 µg/mL in the test with E. coli ATCC25922 (setting [1]), > 16 µg/mL in the test with S. pneumoniae ATCC49619 (setting [2]) and 2 µg/mL (≈ 4 µM) with S. aureus ATCC13709 (setting [3]).

`COc1ccc2nccc(-n3cc4c(n3)CCC(NC(=O)c3cc5c(cc3C)SCC(=O)N5)C4)c2n1` (centres unmarked) [Example 133, 7-Methyl-3-oxo-3,4-dihydro-2H-benzo[1,4]thiazine-6-carboxylic acid [2-(6-methoxy-[1,5]naphthyridin-4-yl)-4,5,6,7-tetrahydro-2H-indazol-5-yl]-amide]: the MIC with CipR MRSA OC4222 (CipR MRSA OC4222) is 0.25 µg/mL (≈ 0.499 µM); in the test with E. coli ATCC25922 (setting [1]) it was > 16 µg/mL; in the test with S. pneumoniae ATCC49619 (setting [2]), > 16 µg/mL; with S. aureus ATCC13709 (setting [3]), 0.25 µg/mL (≈ 0.499 µM).

As for `COc1ccc2nccc(-n3cc4c(n3)CCC(NCCOc3cc(F)cc(F)c3)C4)c2n1` (centres unmarked) [Example 134, [2-(3,5-Difluoro-phenoxy)-ethyl]-[2-(6-methoxy-[1,5]naphthyridin-4-yl)-4,5,6,7-tetrahydro-2H-indazol-5-yl]-amine], the minimal inhibitory concentration (MIC) is 0.5 µg/mL (≈ 1.11 µM) with CipR MRSA OC4222 (CipR MRSA OC4222), > 16 µg/mL with E. coli ATCC25922 (setting [1]), 4 µg/mL (≈ 8.86 µM) in the test with S. pneumoniae ATCC49619 (setting [2]) and 1 µg/mL (≈ 2.21 µM) in the test on S. aureus ATCC13709 (setting [3]).

As for `CCOC(=O)c1cc2c(cc1C(=O)NC1CCc3nn(-c4ccnc5ccc(OC)cc45)cc3C1)NC(=O)CS2` (centres unmarked) [Example 135, 6-[2-(6-Methoxy-quinolin-4-yl)-4,5,6,7-tetrahydro-2H-indazol-5-ylcarbamoyl]-3-oxo-3,4-dihydro-2H-benzo[1,4]thiazine-7-carboxylic acid ethyl ester], the MIC was 2 µg/mL (≈ 3.59 µM) with CipR MRSA OC4222 (CipR MRSA OC4222), > 16 µg/mL in the test with E. coli ATCC25922 (setting [1]), > 16 µg/mL with S. pneumoniae ATCC49619 (setting [2]) and 2 µg/mL (≈ 3.59 µM) in the test with S. aureus ATCC13709 (setting [3]).

`COc1ccc2nccc(-n3cc4c(n3)CCC(NC(=O)c3cc5c(cc3C(=O)O)SCC(=O)N5)C4)c2c1` (centres unmarked) [Example 136, 6-[2-(6-Methoxy-quinolin-4-yl)-4,5,6,7-tetrahydro-2H-indazol-5-ylcarbamoyl]-3-oxo-3,4-dihydro-2H-benzo[1,4]thiazine-7-carboxylic acid, potassium salt]: the MIC in the test on CipR MRSA OC4222 (MRSA) was 2 µg/mL; with E. coli ATCC25922 (ATCC25922, read-out: E. coli MIC, data marked (*)), > 16 µg/mL; in the test with S. pneumoniae ATCC49619 (Streptococcus pneumoniae, ATCC49619, read-out: S. pneumoniae ATCC49619 MIC), > 16 µg/mL; in the test on S. aureus ATCC13709 (Staphylococcus aureus, ATCC13709, read-out: S. aureus ATCC13709 MIC), 1 µg/mL.

Take `CCOC(=O)c1cc2c(cc1C(=O)NC1CCc3nn(-c4ccnc5ccc(OC)nc45)cc3C1)NC(=O)CS2` (centres unmarked) [Example 137, 6-[2-(6-Methoxy-[1,5]naphthyridin-4-yl)-4,5,6,7-tetrahydro-2H-indazol-5-ylcarbamoyl]-3-oxo-3,4-dihydro-2H-benzo[1,4]thiazine-7-carboxylic acid ethyl ester]: the minimum inhibitory concentration (MIC) in the test with CipR MRSA OC4222 (CipR MRSA OC4222) is 0.5 µg/mL (≈ 0.895 µM); in the test with E. coli ATCC25922 (setting [1]) it was > 16 µg/mL; in the test on S. pneumoniae ATCC49619 (setting [2]), > 16 µg/mL; in the test on S. aureus ATCC13709 (setting [3]), 0.5 µg/mL (≈ 0.895 µM).

`COc1ccc2nccc(-n3cc4c(n3)CCC(NC(=O)c3cc5c(cc3C(=O)O)SCC(=O)N5)C4)c2n1` (centres unmarked) [Example 138, 6-[2-(6-Methoxy-[1,5]naphthyridin-4-yl)-4,5,6,7-tetrahydro-2H-indazol-5-ylcarbamoyl]-3-oxo-3,4-dihydro-2H-benzo[1,4]thiazine-7-carboxylic acid]: the MIC is 0.5 µg/mL (≈ 0.942 µM) in the test on CipR MRSA OC4222 (CipR MRSA OC4222), > 16 µg/mL with E. coli ATCC25922 (setting [1]), 16 µg/mL (≈ 30.2 µM) in the test with S. pneumoniae ATCC49619 (setting [2]) and 0.5 µg/mL (≈ 0.942 µM) with S. aureus ATCC13709 (setting [3]).
